Assays:
[1] = CD thermal transition (triple-helix melting), molar ellipticity at 225 nm; type: physicochemical; settings: [θ] at 225 nm; for Tm (triple-helical melt): 15-85 °C, 1-5% aqueous HOAc, pH 2.4
Description: Edman degradation sequence analysis was performed on an Applied Biosystems 477A Protein Sequencer/120A Analyzer for both solid-phase and "embedded" (non-covalent) sequencing as described by C. G. Fields et al., Anal. Biochem. 203, 245 (1992) and C. G. Fields et al., Peptide Res. 6, 39 (1993), which are incorporated herein by reference. Fulvene-piperidine concentrations (301 nm) and scanning UV spectra (200-320 nm) were determined with a BECKMAN DU-70 Spectrophotometer. Amino acid analyses were performed on a BECKMAN 6300 Analyzer with a sulfated polystyrene cation-exchange column (0.4 cm×25 cm). Peptides were hydrolyzed with 6N aqueous HCl at 110° C. for 18-48 h. Electrospray mass spectrometric (ES-MS) methods have been described by C. G. Fields et al., Peptide Res. 6, 39 (1993), which is incorporated herein by reference. Fast atom bombardment (FAB) MS was performed on a VG 7070E-HF with a glycerol matrix and laser desorption time-of-flight (LD-TOF) MS with both a breadboard and prototype matrix-assisted TOF mass spectrometer from Millipore Corporation (Milford, Mass.) with a sinapinic acid matrix [saturated solution of 10 mg/mL sinapinic acid dissolved in acetonitrile-H2 O (1:3) containing 0.1% TFA]. THPs were ^3 H-labeled by reductive methylation [N. Jentoft et al., J. Biol. Chem. 254, 4359 (1979)] with NaCNBH3 and [^3 H]formaldehyde, desalted over a Sephadex G-50 column (50×1.5 cm) in PBS, pH 7.4, and analyzed by size-exclusion chromatography (SEC). CD spectroscopy was performed on a Jasco 710 spectropolarimeter using a 100 or 200 μL, 0.1 mm cell. The THP concentrations (determined spectrophotometrically) in 1-5% aqueous HOAc, pH 2.4 were [THP-1]=0.16 mM, [THP-2]=0.084 mM, [THP-3]=0.068 mM, and [THP-4]=0.015 mM. Spectra were recorded by accumulating 5 scans at 0.5 nm intervals (response of 1 sec). Thermal transitions were examined by measuring the molar ellipticity ([θ]) at 225 nm from 15°-85° C.

K1735M4 tumor cell [2] = experiment: Melanoma cell adhesion to peptide-coated Immulon plates; type: cell-based, mouse; settings: for EC50: coated peptide 0.1-300 μM, cells adhered 1 h at 37 °C, one mole = three peptide chains, read-out: Half maximal melanoma cell adhesion (peptide concentration)
Description: (§1) K1735M4 tumor cell adhesion and spreading assays were as described previously [M. K. Chelberg et al., J. Cell Biol. 111, 261 (1990)] with minor alterations. Peptides were dissolved in PBS and adsorbed directly onto 96-well polystyrene Immulon 1 plates (Dynatech Laboratories Inc., Chantlily, Va.) overnight at 37° C. Nonspecific binding sites were blocked with 5 mg/mL bovine serum albumin in adhesion media [Dulbecco's modified Eagle's medium containing 20 mM 4-(2-hydroxyethyl)-1-piperazineethanesulfonic acid] for 2 h at 37° C. Tumor cells were released from tissue culture flasks with 37° C. PBS containing 10 mM EDTA and washed several times with adhesion media. Cells were labeled overnight with 1 μCi/mL [^3 H]thymidine (New England Nuclear, Boston, Mass.) for adhesion assays. Cells were added to the plate wells at a density of 50,000 cells/mL in a total volume of 100 μL and adhered for 1 h at 37° C. For adhesion assays wells were washed several times with adhesion media and remaining cells lysed and radioactivity determined as described [M. K. Chelberg et al., J. Cell Biol. 111, 261 (1990)]. For spreading assays wells were fixed and stained using DiffQuik reagents (Baxter) and photographed with a Nikon MF-15 camera mounted on a Nikon Diaphot inverted microscope at 200× magnification. Cell spreading was quantitated by an Optomax System IV image analyzer equipped with a Hitachi Monitor. The efficiency of peptide adsorption to the Immulon plates was determined as described [M. K. Chelberg et al., J. Cell Biol. 111, 261 (1990)] using ^3 H- or ^125 I-labeled peptide.

K1735M4 tumor cell [3] = experiment: Melanoma cell spreading on peptide-coated plates; type: cell-based, mouse; settings: for cell areas averaged (cell spreading): [THP-2]=0.9 μM, [SSP]=2.1 μM, [GPP*]=1.4 μM
Description: as §1

Row | Substance | Tm (triple-helical melt) [1] [°C] | midpoint of low temperature transition (aggregation) ([1]; 5% aqueous HOAc, pH 2.4, shown by SEC to be aggregation) [°C] | increase in melanoma cell adhesion activity compared with the α1(IV) 1263-1277 sequence alone (K1735M4 tumor cell [2]; THP-2 versus SSP) [fold] | EC50 (K1735M4 tumor cell [2]) [µM] | Cell spreading, comparison in words (K1735M4 tumor cell [3]; THP-2 versus SSP and GPP*) | cell areas averaged (cell spreading) (K1735M4 tumor cell [3]) [mm^2 /μM peptide]
1 | (Gly-Pro-Hyp)3 -Gly-Val-Lys-Gly-Asp-Lys-Gly-Asn-Pro-Gly-Trp-Pro-Gly-Ala-Pro [THP-4] | 35.0 |  |  |  |  | 
2 | (Gly-Pro-Hyp)8 -Gly-Glu-Phe-Tyr-Phe-Asp-Leu-Arg-Leu-Lys-Gly-Asp-Lys [THP-1] | 53.0 |  |  |  |  | 
3 | (Gly-Pro-Hyp)8 -Gly-Val-Lys-Gly-Asp-Lys-Gly-Asn-Pro-Gly-Trp-Pro-Gly-Ala-Pro [THP-2] | 58.5 | 23.5 | 100 | 1.12 | more extensive | 0.048
4 | (Gly-Pro-Hyp)8 [THP-3] | 42.5 |  |  | > 100 |  | 0.017
